# Values of other authors, collected in US20150196708A1, “SYSTEMS, METHODS AND COMPOSITIONS FOR IMPROVED TREATMENT OF ACIDOSIS” (The Regents of the University of California, priority 2012, published 2015).
# Assays:
# [1] = room temperature; incorporates CO2(aq)/H2CO3(aq) equilibrium
# patients with acidosis = settings: literature (Cooper et al., 1990; Leung et al., 1994)
SMILES,Ka1 (deprotonation) [1],clinical benefit in human studies (patients with acidosis)
O=C(O)O [carbonic acid],4.3×10^−7,
"O=C([O-])O.[Na+] [bicarbonate, sodium bicarbonate]",,no more beneficial effect than the administration of similar quantities of sodium chloride
